{"source": "patent US7279479B2", "about": "“Method for the treatment of heart failure” (Orion Corporation, priority 2001, dated 2007)", "key": {"[1]": {"tested_on": "guinea-pigs intoxicated with verapamil", "assay": "Survival of anesthetized guinea-pigs intoxicated with verapamil (acute heart failure)", "format": "in vivo, guinea-pig (Dunkin Hartley)", "settings": "verapamil 2.0 mg/kg i.v.; 60 min follow-up; low doses: levosimendan 8.4 μg/kg bolus + 0.14 μg/kg/min, CaCl2 10 mg/kg bolus + 0.5 mg/kg/min; vs saline control", "protocol": "At zero time, the intoxication was started with an intravenous bolus injection of verapamil and immediately continued with a 4-min infusion. The total dose of verapamil was 2.0 mg/kg. Control animals were treated with saline.\n(§1) 120 spontaneously breathing guinea-pigs (Dunkin Hartley, weighing 470±5 grams, mean±SEM) were anesthetised with isoflurane. The left ventricular and brachial arterial pressures were measured. The carotid artery was surgically exposed in order to introduce a pressure transducer into the left ventricle. A fluid-filled polyethylene cannula was inserted into the brachial artery and connected to another pressure transducer for recording of arterial pressure. The pressure signals were amplified, digitized and sampled."}, "[2]": {"tested_on": "guinea-pigs intoxicated with diltiazem", "assay": "Survival of anesthetized guinea-pigs intoxicated with diltiazem (acute heart failure)", "format": "in vivo, guinea-pig (Dunkin Hartley)", "settings": "diltiazem 4.5 mg/kg i.v.", "protocol": "At zero time, the intoxication was started with an intravenous bolus injection of diltiazem and immediately continued with a 4-min infusion. The total dose of diltiazem was 4.5 mg/kg. Control animals were treated with saline. All treatments were started one minute after the end of the diltiazem infusion. *p<0.05, **p<0.01, ***p<0.001 vs. control (Kaplan-Meier survival analysis followed by the logrank test).\nas §1"}}}
{"smiles": "CC1CC(=O)NN=C1c1ccc(NN=C(C#N)C#N)cc1", "note": "(single isomer, unassigned; (-)) [levosimendan, (−)-enantiomer of [[4-(1,4,5,6-tetrahydro-4-methyl-6-oxo-3-pyridazinyl)phenyl]hydrazono]propanedinitrile]", "values": [{"measurement": "effect on survival (in words)", "setting": "[1]", "result": "did not improve the survival"}, {"measurement": "survival rate", "setting": "[2]; 60 minutes after intoxication began, levosimendan 8.4 μg/kg bolus + 0.14 μg/kg/min, control 13%", "result": 63, "unit": "%"}]}
{"smiles": "[Ca+2].[Cl-].[Cl-]", "note": "[calcium chloride]", "values": [{"measurement": "effect on survival (in words)", "setting": "[1]", "result": "did not affect the survival rate"}, {"measurement": "effect on survival (in words)", "setting": "[2]; 60 min follow-up, low doses: levosimendan 8.4 μg/kg bolus + 0.14 μg/kg/min, CaCl2 10 mg/kg bolus + 0.5 mg/kg/min, vs saline control", "result": "did not affect the survival rate"}]}
